# Laboratory results published in patent publication US10457707B2, “Substituted urea depsipeptide analogs as activators of the CLPP endopeptidase” (priority 2015, dated 2019).
# Like-named read-outs stand apart in the source and are kept apart here. *1 amine or outer side, *2 acyl side, *3 side chain or, on linkers, in order; H or OH if unused. Where a SMILES comes first, the peptide text is derived from it. Bridges are numbered along the chain shown (N, C = ends). [ ]: non-standard residue; d: D form. The star is where a group is joined. ξ: configuration not given here. Phe(3,5-F2) = N[C@@H](Cc1cc(F)cc(F)c1)C(=O)O; Morpholine(3S-CO) = O=C(O)[C@@H]1COCCN1; NH(4-Cl-2-F-phenyl) = Fc1cc(Cl)ccc1N*; Pro(4R-Me) = C[C@H]1CN[C@H](C(=O)O)C1; Hyp = O=C(O)[C@@H]1C[C@@H](O)CN1; Heptenoyl(2E) = CCCC/C=C/C(=O)*; ξNMeThr = CNC(C(=O)O)[C@@H](C)O; aThr = C[C@H](O)[C@H](N)C(=O)O; Pip = O=C(O)[C@@H]1CCCCN1; X8 = c1cc2c(cc1N*)CCO2; X1 = N#Cc1cc(N*)ccc1F; CO = O=C([*:1])[*:2]
# Assays:
# Sa-ClpP = target: T1, Sa-ClpP (Staphylococcus aureus, UniProt Q2G036); experiment: Sa-ClpP casein-BODIPY ClpP activation assay, method variant not marked in Table 5; format: biochemical, S. aureus
# T1 construct: made in house; host or cells: E. coli BL21(DE3)
# T1 sequence (Q2G036 1-195): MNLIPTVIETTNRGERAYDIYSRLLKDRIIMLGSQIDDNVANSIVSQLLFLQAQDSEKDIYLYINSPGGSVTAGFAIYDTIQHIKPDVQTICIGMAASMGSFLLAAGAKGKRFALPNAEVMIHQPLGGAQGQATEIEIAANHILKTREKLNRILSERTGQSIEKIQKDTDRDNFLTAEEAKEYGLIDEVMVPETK
# Procedure: The compounds were assayed in a casein digestion assay in order to determine their effect on ClpP activation. Briefly, the assay was carried out using S. aureus ClpP (“Sa-ClpP”) overexpressed in E. coli BL21(DE3) and purified in a two-step process. Purity of the protein was assessed through SDS PAGE analysis. EC50 evaluations were conducted in triplicate in a 20 μl assay format using a method adapted from Maurizi et al. (Methods Enzymol. (1994) 244:314-331). Each well contained 10 μM saClpP, 25 μg/ml BODIPY FL casein (Invitrogen Corporation, San Diego, Calif.), and test compound in concentrations ranging between 0-1000 μM in assay buffer (50 mM Tris pH 8, 200 mM KCl, and 1 mM TCEP). The reaction took place at 37° C. Fluorescence (excitation 485 nm; emission 528 nm) was measured in five minute intervals over a 45 min period using a BioTek HT fluorescence microplate reader (BioTek Instruments, Inc., Winooski, Vt.). Velocity of each reaction was calculated and data was fit to a dose response curve using GraphPad Prism® software (GraphPad Software, Inc., La Jolla, Calif.). EC50 is the effective concentration of compound which causes 50% activation of S. aureus ClpP in the foregoing BODIPY FL casein assay.
# Alternatively, the assay was carried out using EnzCheck Protease Assay (Molecular Probes, Catalog # E6638). The assay was performed in black 384 well, flat bottom, low volume plates (Greiner Bio-One, Monroe, N.C., catalog #784076). 10 μL of Tris*HCl buffer, pH 8.0 with 0.01% Triton X-100 was pipetted into each well using a Well-Mate (Thermo Scientific, Waltham, Mass.). 0.4 μL test compounds or controls (2% DMSO v/v) were added to each well using a Biomek FX liquid handling robot (Beckman Coulter, Indianapolis Ind.). After addition of test compounds and controls, 10 μL of master mix containing 2 μM Sa-ClpP and 2 μM substrate (Bodipy-FL labeled casein) in Tris*HCl buffer, pH 8.0 with 0.01% (v/v) Triton X-100, was pipetted into each well. All assays were performed in triplicate, under linear velocity conditions. Increase in fluorescent signal following activation of Sa-ClpP by test compounds and controls was measured over time period of 30 mins using filters with excitation at 485±15 nm and emission at 520±25 nm on a PHERAstar FS Multilabel reader (BMG, Cary, N.C.). […] Data analysis was done by measuring rate of casein degradation over time (slopes). Computed degradation rates (slopes) were normalized to positive (ADEP4) or negative (DMSO) controls. Using nonlinear regression curve fitting EC50 values and % activation were determined using the equation “log [agonist] vs. Response-variable slope (four parameters)-symmetrical” in the program Prism 6 (GraphPad Software, La Jolla, Calif. USA, www.graphpad.com).
# Substituted urea depsipetide analogs were synthesized as described above. The EC50 for ClpP activation was determined in the Sa-ClpP in casein-BODIPY assay as described above. The IC50 for ADEP displacement was determined in the ADEP displacement fluorescent polarization assay as described above; and the IC50 for growth inhibition was determined in the Vero cell cytotoxicity assay as described above. The compound number corresponds to the compound numbers used in Tables 1-4 and the experimental examples described above.
# [1] = tested on: Staphylococcus aureus, USA 300 wherein ClpP is inactivated; experiment: Minimal inhibitory concentration assay; format: cell-based
# Procedure, shortened: (§1)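 Compound is serially diluted two-fold in the appropriate broth, and bacterial inoculum at about 10^5 cfu/mL is added so the highest final concentration is 200 μM. Plates stay overnight at 37 °C under aerobic conditions before growth is scored by eye.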
# [2] = tested on: Staphylococcus aureus, USA 300; experiment: Minimal inhibitory concentration assay; format: cell-based; conditions: USA300, read-out: Minimal Inhibitory Concentrations S. aureus USA 300
# Procedure, shortened: as §1
# [3] = values without ** or † mark, assay variant not stated, read-out: ClpP Activation EC50
Compound,EC50 (Sa-ClpP) [nM],Minimal Inhibitory Concentrations S. aureus USA 300 ΔClpP [1] [µM],MIC [2] [µM],EC50 (Sa-ClpP; [3]) [nM]
"C[C@@H]1C[C@H]2C(=O)O[C@@H](C)[C@H](NC(=O)[C@H](Cc3cc(F)cc(F)c3)NC(=O)Nc3ccc(F)c(C#N)c3)C(=O)N3CCC[C@H]3C(=O)N3CCCC[C@H]3C(=O)N[C@@H](C)C(=O)N2C1 [Compound 324, (S)-2-(3-(3-cyano-4-fluorophenyl)ureido)-3-(3,5-difluorophenyl)-N-((2R,6S,8aS,14aS,20S,21S,23aS)-2,6,21-trimethyl-5,8,14,19,23-pentaoxooctadecahydro-1H,5H,14H,19H-pyrido[2,1-i]dipyrrolo[2,1-c:2′,1′-l][1]oxa[4,7,10,13]tetraazacyclo-hexadecin-20-yl)propanamide] ({X1-CO}-[Phe(3,5-F2)][aThr]P[Pip]A[Pro(4R-Me)]; ester 2-C)",500 ± 30,>20,0.625,–
"C[C@@H]1C[C@H]2C(=O)O[C@@H](C)[C@H](NC(=O)[C@H](Cc3cc(F)cc(F)c3)NC(=O)Nc3ccc(F)c(C#N)c3)C(=O)N3C[C@H](O)C[C@H]3C(=O)N3CCOC[C@H]3C(=O)N[C@@H](C)C(=O)N2C1 [Compound 326, (S)-2-(3-(3-cyano-4-fluorophenyl)ureido)-3-(3,5-difluorophenyl)-N-((6aS,8R,12S,13S,15aS,17R,21S,23aS)-8-hydroxy-13,17,21-trimethyl-6,11,15,20,23-pentaoxooctadecahydro-6H,11H,15H-[1,4]oxazino[3,4-i]dipyrrolo[2,1-c:2′,1′-l][1]oxa[4,7,10,13]tetraazacyclo-hexadecin-12-yl)propanamide] ({X1-CO}-[Phe(3,5-F2)][aThr][Hyp][Morpholine(3S-CO)]A[Pro(4R-Me)]; ester 2-C)",460 ± 40,>20,20,–
"CCCC/C=C/C(=O)N[C@@H](Cc1cc(F)cc(F)c1)C(=O)N[C@@H]1C(=O)N2C[C@H](O)C[C@H]2C(=O)N2CCCC[C@H]2C(=O)N[C@@H](C)C(=O)N2C[C@H](C)C[C@H]2C(=O)O[C@H]1C [Compound 301, (E)-N—((S)-3-(3,5-difluorophenyl)-1-(((2R,6S,8aS,14aS,16R,20S,21S,23aS)-16-hydroxy-2,6,21-trimethyl-5,8,14,19,23-pentaoxooctadecahydro-1H,5H,14H,19H-pyrido[2,1-i]dipyrrolo[2,1-c:2′,1′-l][1]oxa[4,7,10,13]tetraazacyclohexadecin-20-yl)amino)-1-oxopropan-2-yl)hept-2-enamide] ({Heptenoyl(2E)}-[Phe(3,5-F2)][aThr][Hyp][Pip]A[Pro(4R-Me)]; ester 2-C)",–,>20,0.079,420 ± 10
"C[C@@H]1C[C@H]2C(=O)O[C@@H](C)[C@H](NC(=O)[C@H](Cc3cc(F)cc(F)c3)NC(=O)Nc3ccc4c(c3)CCO4)C(=O)N3CCC[C@H]3C(=O)N3CCCC[C@H]3C(=O)N[C@@H](C)C(=O)N2C1 [Compound 305, (S)-3-(3,5-difluorophenyl)-2-(3-(2,3-dihydrobenzofuran-5-yl)ureido)-N-((2R,6S,8aS,14aS,20S,21S,23aS)-2,6,21-trimethyl-5,8,14,19,23-pentaoxooctadecahydro-1H,5H,14H,19H-pyrido[2,1-i]dipyrrolo[2,1-c:2′,1′-l][1]oxa[4,7,10,13]tetraazacyclo-hexadecin-20-yl)propanamide] ({X8-CO}-[Phe(3,5-F2)][aThr]P[Pip]A[Pro(4R-Me)]; ester 2-C)",–,>20,0.24,480 ± 20
"C[C@@H]1C[C@H]2C(=O)O[C@@H](C)[C@H](NC(=O)[C@H](Cc3cc(F)cc(F)c3)NC(=O)Nc3ccc(Cl)cc3F)C(=O)N3CCC[C@H]3C(=O)N3CCOC[C@H]3C(=O)N[C@@H](C)C(=O)N2C1 [Compound 314, (S)-2-(3-(4-chloro-2-fluorophenyl)ureido)-3-(3,5-difluorophenyl)-N-((6aS,12S,13S,15aS,17R,21S,23aS)-13,17,21-trimethyl-6,11,15,20,23-pentaoxooctadecahydro-6H,11H,15H-[1,4]oxazino[3,4-i]dipyrrolo[2,1-c:2′,1′-l][1]oxa[4,7,10,13]tetraazacyclo-hexadecin-12-yl)propanamide] ({NH(4-Cl-2-F-phenyl)-CO}-[Phe(3,5-F2)][aThr]P[Morpholine(3S-CO)]A[Pro(4R-Me)]; ester 2-C)",400 ± 10,>20,< 0.02,–
"CCCC/C=C/C(=O)N[C@@H](Cc1cc(F)cc(F)c1)C(=O)N[C@@H]1C(=O)N2C[C@H](O)C[C@H]2C(=O)N2CCOC[C@H]2C(=O)N[C@@H](C)C(=O)N2C[C@H](C)C[C@H]2C(=O)O[C@H]1C [Compound 309, (E)-N—((S)-3-(3,5-difluorophenyl)-1-(((6aS,8R,12S,13S,15aS,17R,21S,23aS)-8-hydroxy-13,17,21-trimethyl-6,11,15,20,23-pentaoxooctadecahydro-6H,11H,15H-[1,4]oxazino[3,4-i]dipyrrolo[2,1-c:2′,1′-l][1]oxa[4,7,10,13]tetraazacyclohexadecin-12-yl)amino)-1-oxopropan-2-yl)hept-2-enamide] ({Heptenoyl(2E)}-[Phe(3,5-F2)][aThr][Hyp][Morpholine(3S-CO)]A[Pro(4R-Me)]; ester 2-C)",–,>20,0.625,480 ± 20
"C[C@@H]1C[C@H]2C(=O)O[C@@H](C)[C@H](NC(=O)[C@H](Cc3cc(F)cc(F)c3)NC(=O)Nc3ccc(Cl)cc3F)C(=O)N3CCC[C@H]3C(=O)N3CCCC[C@H]3C(=O)N[C@@H](C)C(=O)N2C1 [Compound 307, (S)-2-(3-(4-chloro-2-fluorophenyl)ureido)-3-(3,5-difluorophenyl)-N-((2R,6S,8aS,14aS,20S,21S,23aS)-2,6,21-trimethyl-5,8,14,19,23-pentaoxooctadecahydro-1H,5H,14H,19H-pyrido[2,1-i]dipyrrolo[2,1-c:2′,1′-l][1]oxa[4,7,10,13]tetraazacyclo-hexadecin-20-yl)propanamide] ({NH(4-Cl-2-F-phenyl)-CO}-[Phe(3,5-F2)][aThr]P[Pip]A[Pro(4R-Me)]; ester 2-C)",440 ± 30,>20,< 0.02,–
"C[C@@H]1C[C@H]2C(=O)O[C@@H](C)[C@H](NC(=O)[C@H](Cc3cc(F)cc(F)c3)NC(=O)Nc3ccc(Cl)cc3F)C(=O)N3CCC[C@H]3C(=O)N(C)C([C@@H](C)O)C(=O)N[C@@H](C)C(=O)N2C1 (stereo partly drawn) [Compound 313, (S)-2-(3-(4-chloro-2-fluorophenyl)ureido)-3-(3,5-difluorophenyl)-N-((2R,6S,9R,11aS,17S,18S,20aS)-9-((R)-1-hydroxyethyl)-2,6,10,18-tetramethyl-5,8,11,16,20-pentaoxohexadecahydro-1H,5H,16H-dipyrrolo[2,1-c:2′,1′-l][1]oxa[4,7,10,13]tetraazacyclohexadecin-17-yl)propanamide] ({NH(4-Cl-2-F-phenyl)-CO}-[Phe(3,5-F2)][aThr]P[ξNMeThr]A[Pro(4R-Me)]; ester 2-C)",340 ± 10,>20,< 0.02,–
